By inhibition is commonly meant the drop in the measured response relative to a control, in per cent.

Values joined by “and” are separate entries in the source; they are usually repeats but may differ in a detail not shown here. Identical values can stand only once.

For assay [1], the target named is T1, arachidonate-lipoxygenase of human thrombocyte (Homo sapiens, UniProt P18054).
T1 construct: microsome-free lysate of human thrombocyte concentrates; from tissue; host or cells: human thrombocyte (platelet) concentrates, microsome-free lysate
T1 sequence (P18054 whole entry): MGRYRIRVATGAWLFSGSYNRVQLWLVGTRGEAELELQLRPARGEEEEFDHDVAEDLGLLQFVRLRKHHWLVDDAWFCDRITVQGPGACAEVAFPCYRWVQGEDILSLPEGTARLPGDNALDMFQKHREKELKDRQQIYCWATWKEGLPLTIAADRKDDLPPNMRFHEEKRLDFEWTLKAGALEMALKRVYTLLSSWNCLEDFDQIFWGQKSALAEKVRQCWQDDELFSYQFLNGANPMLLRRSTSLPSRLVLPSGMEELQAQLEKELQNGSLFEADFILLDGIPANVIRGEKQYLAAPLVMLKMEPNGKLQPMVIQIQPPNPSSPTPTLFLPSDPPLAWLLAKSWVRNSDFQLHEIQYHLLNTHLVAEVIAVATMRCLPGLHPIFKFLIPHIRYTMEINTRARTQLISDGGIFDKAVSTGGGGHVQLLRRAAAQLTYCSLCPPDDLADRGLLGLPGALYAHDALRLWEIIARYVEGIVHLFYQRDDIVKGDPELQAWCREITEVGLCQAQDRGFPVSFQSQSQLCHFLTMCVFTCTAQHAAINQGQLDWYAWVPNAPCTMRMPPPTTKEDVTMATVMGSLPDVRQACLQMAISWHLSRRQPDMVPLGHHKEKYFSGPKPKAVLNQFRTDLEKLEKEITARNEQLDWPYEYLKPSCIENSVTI
Kind of assay: Arachidonate-lipoxygenase activity of microsome-free lysate of human thrombocyte concentrates. The class given is biochemical. The following applies: 0.25 mM. Here is the method:
(§1) The inhibition of thrombocyte aggregation is likewise ascribed to the inhibition of lipoxygenase in the cells. It has thus been shown that the arachidonate-lipoxygenase activity of a microsome-free lysate of human thrombocyte concentrates is inhibited to the extent of 100% by means of 0.25 mM salicylhydroxamic acid. Moreover, it has been shown that also a series of further lipoxygenases are inhibited by means of the here described hydroxamic acids. The lipoxygenase from soybeans reacts the most insensitive, i.e. it is inhibited by means of 1 mM salicylhydroxamic acid at pH 7.4 to an extent of 60% and by means of 0.4 mM 2-hydroxy-1-napthylhydroxamic acid to an extent of 54%. In contrast, for the lipoxygenase from peas which come closer in their characteristics to human lipoxygenase, the following I50 -values are provided: salicyl hydroxamic acid, 5 μM, 2-hydroxy-1-napthylhydroxamic acid, 2 μM, 2(2'-napthoxy)-acethydroxamic acid, 2 μM. Moreover it has been shown that the formation lipoxygenase products of arachidonic acid in in vitro cultivated aorta endothelial cells of calves is hindered through 0.1 mM 2-hydroxy-1-napthylhydroxamic acids.

Assay [2] has as its target T2, lipoxygenase from soybeans (Glycine max, UniProt P08170).
T2 construct: host or cells: soybeans
T2 sequence (P08170 1-839): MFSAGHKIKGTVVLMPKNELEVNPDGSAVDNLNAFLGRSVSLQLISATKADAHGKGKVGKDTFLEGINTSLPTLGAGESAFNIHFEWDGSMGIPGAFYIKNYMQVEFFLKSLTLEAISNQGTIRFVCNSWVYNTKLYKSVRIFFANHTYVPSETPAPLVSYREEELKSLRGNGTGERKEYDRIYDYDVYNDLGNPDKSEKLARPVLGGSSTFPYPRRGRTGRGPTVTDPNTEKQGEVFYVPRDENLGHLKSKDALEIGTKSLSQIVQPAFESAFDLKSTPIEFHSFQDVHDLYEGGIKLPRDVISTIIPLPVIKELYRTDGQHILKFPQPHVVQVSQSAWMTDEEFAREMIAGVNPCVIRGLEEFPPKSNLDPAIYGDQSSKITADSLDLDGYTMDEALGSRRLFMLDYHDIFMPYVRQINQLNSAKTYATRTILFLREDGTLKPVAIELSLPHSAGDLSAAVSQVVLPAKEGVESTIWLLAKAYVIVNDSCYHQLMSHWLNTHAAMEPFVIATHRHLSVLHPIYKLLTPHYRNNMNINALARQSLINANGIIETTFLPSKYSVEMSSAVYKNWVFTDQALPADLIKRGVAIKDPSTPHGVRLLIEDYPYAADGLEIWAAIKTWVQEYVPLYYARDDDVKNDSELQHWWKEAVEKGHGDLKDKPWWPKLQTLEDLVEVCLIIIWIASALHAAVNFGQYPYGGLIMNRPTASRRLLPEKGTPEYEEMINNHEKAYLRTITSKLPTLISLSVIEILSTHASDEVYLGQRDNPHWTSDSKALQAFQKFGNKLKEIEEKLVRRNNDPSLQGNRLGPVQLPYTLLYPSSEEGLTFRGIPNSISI
Kind of assay: Inhibition of lipoxygenase from soybeans. The class given is biochemical. Particulars: pH 7.4, read-out: inhibition of soybean lipoxygenase. Here is the method: as §1

For assay [3], the system named is histamine-induced bronchoconstriction in guinea pigs. The assay is described as follows: Inhibition of histamine-induced bronchoconstriction in guinea pigs in vivo. Here is the method: Accordingly, this complete animal model is called upon for further experimental determination of the anti-asthmatic activity of compounds of Formula I. The following describes a representative experiment with salicylhydroxamic acid (SHAM) in […] male guinea pigs. SHAM is applied in a dose of 95 mg/kg body weight; this dose lies a power of ten below the determined values for acute toxicity (LD50 -value).
After urethane narcosis, a flexible catheter is introduced into the V. jugularis dext. of each animal. After a tracheotomy a tracheotubular needle is inserted for respiration. Then, after muscle relaxation with Pavulon, mechanical respiration follows in a Body-Plethysmograph (16 min^-1, I/E=1/1, pI =20 cmH2 O; Muller et al., 1976; Oddoy et al., 1982).
Over a tubular flesh needle at the outwardly led tracheotubular needle, the breath volume per draw of breath is measured by means of a pneumotachograph. The values are separately integrated and registered with a light recorder.
After 3 minutes calm breathing with registration of the parameter, three animals are dosed each with 2.5 ml SHAM-solution (isotonic, 37° C., 0.1M), i.v. (SHAM was dissolved in water directly before the test by heating, and the solution was cooled quickly in an 37° C. water bath.)
After 5 minutes further observation there follows the delivery of 5 μg/kg KM Histamine i.v. for providing a submaximal bronchospasm. After a further 5 minutes, 50 μg/kg KM Histamine are injected i.v. This leads according to experience to a fast, complete bronchial spasm ("silent chest"). After registration of the breath volume over a further 5 minutes, the test is completed.
In 3 animals serving as control group, with otherwise analogous procedure, instead of SHAM, 2.5 ml isotonic NaCl-solution are applied.
The calm- and the 5-minute values are mean values (in cm amplitude) from each 5 draws of breath.
The values after the Histamine injections represent the draw of breath having the smallest volume (3rd to 5th draw of breath after injection).

Assay [4] shares this test system. Described as above. Particulars: individual animals; second histamine injection; listed as SHAM.
The test system of a further assay is guinea pig lung strips. Kind of assay: Activity on the basal tones of guinea pig lung strips. The following applies: Cavia porcellus, basal tone, cumulative dose-activity curve. The text has this:
The testing of the compounds for antiasthmatic activity follows on isolated lung strips and isolated tracheal rings from guinea pigs according to measuring methods known from the literature (supra) in modified form. The measurements follow in thermostatically controlled organ bath, isotonically using a contraction measuring arrangement with lift receiver, measuring coil, measuring amplifier (inductive measurement with the aid of a high frequency resonant circuit). The gasification follows with air. The suspension solution has the following composition: 39.46 g NaCl, 2.2 g KCl, 6.07 g Tris, 1.0 g CaCl2, 9.9 g glucose, 1.0 ml saturated MgCl2 -solution, 43 ml 1N HCl; pH 7.4.
(c) Activity on the basal tones of guinea pig lung strips.
Increasing concentrations of the active substance are added to the suspension medium. There occurs a dilatation, which is cumulatively measured. From the Dose-Activity-curves are provided the following parameters: […]

The mark [5] stands for this setting: individual animals, draw of breath having the smallest volume, listed as SHAM.
The mark [6] stands for this setting: individual animals, listed as SHAM.

The compound `O=C(NO)c1ccccc1O` [salicylhydroxamic acid] had an inhibition at 250 µM in assay [1] of 100%. In assay [2], the inhibition at 1000 µM came to 60%. For the same compound, the “volume change, after 5 min” value in assay [3] (average value for n = 3, 5 min after first histamine injection) is “+7%”; in assay [3] (average value for n = 3, 5 min after second histamine injection), -20%; in assay [3] (average value for n = 3, after SHAM i.v.) it was “+7.7%”; in assay [3] (individual animals, 5 min after first histamine injection, listed as SHAM) it was “+5% and +10% and +7.2%”; in assay [3] (individual animals, 5 min after second histamine injection, listed as SHAM), -04% and -22% and -35%; in assay [3] (individual animals, percent of the starting draw volume, after SHAM i.v.) it was “+2% and +4% and +17%”. The “volume change, after 5 μg/kg Histamine” value in assay [3] (average value for n = 3, first histamine injection) is -18%; in assay [3] (average value for n = 3, second histamine injection) it was -68.9%; in assay [3] (individual animals, first histamine injection, listed as SHAM), -8% and -48% and 0%; in assay [4], -49% and -95.7% and -62%. In addition, in assay [3] (before histamine), the “breath volume after i.v. injection” value is listed as “insignificant rise”. The “V-5 min after SHAM (breath volume change)” value in assay [3] (individual animals, 2.5 ml 0.1M SHAM i.v., cm amplitude) is “+0.1 cm and +0.2 cm and +0.45 cm”. In assay [3] (setting [5]), the “V after 5 μg Hist. i.v.” value is -0.4 cm and -2.2 cm. Also, the “V after 50 μg Hist. i.v.” value in assay [3] (setting [5]) was -2.4 cm and -4.4 cm and -1.6 cm. Besides, the “V-5 min thereafter (after 5 μg Hist.)” value in assay [3] (setting [6]) was “+0.26 cm and +0.48 cm and +0.19 cm”. The “V-5 min thereafter (after 50 μg Hist.)” value in assay [3] (setting [6]) is -0.2 cm and -1.0 cm and -0.9 cm. Besides, the “bronchial spasm after histamine injections” value in assay [3] (pre-treated animals versus control group) is reported as “smaller bronchial spasm than the animals of the control group”. For the same compound, the “spontaneous regression of histamine induced bronchial spasm” value in assay [3] (treated animals versus control group) is “more quickly and more extensively than in the control group”.

Consider `O=C(COc1ccc2ccccc2c1)NO` [2(2'-naphthoxy)-acethydroxamic acid], for which, in the assay with guinea pig lung strips (read-out: ED50 (dilatation)), the EC50 worked out at 14 µM. Also, the EC84 in the assay on guinea pig lung strips (read-out: ED84 (dilatation)) came to 27 µM.

The record behind these values is patent publication US4670469A, “Hydroxamic acid and pharmaceutical preparations containing the same” (VEB Arzneimittelwerk Dresden, priority 1983, dated 1987).
